Reference: patent publication US20100203110A1, “Therapeutics for Cancer Using 3-Bromopyruvate and Other Selective Inhibitors of ATP Production” (The Johns Hopkins University, priority 2006, published 2010)

Columns and labels:
VX2 tumor glycolysis = assay: Glycolytic activity (lactic acid formation) of VX2 tumor slices; type: cell-based, rabbit; settings: for inhibition of VX2 tumor glycolysis (screen): 6 mM agent, 6 mM glucose, 37° C., 5 h
Procedure: Glycolysis was assayed by monitoring the formation of lactic acid following the addition of glucose to a medium containing VX2 tumor slices. Specifically, freshly excised tumors were washed 3 times at 4° C. in 20 ml Chance Hess Medium containing 6.2 mM KCl, 154 mM NaCl, and 11 mM NaPi, pH 7.4. Slices, 1 g each, were then prior incubated for 30 min in a Lab-Line incubator-shaker at 37° C. in 2 ml of the same medium while shaking at 50 rpm. Glucose was then added to give a final concentration of 6 mM, after which the incubation/shaking process was continued with 0.2 ml samples being removed every 30 min for up to 2 h. These samples were subjected to centrifugation at 14,000 rpm in an Eppendorf Centrifuge (Model 5415C). Then, aliquots of the supernatant, 0.01 ml, were removed from each sample, diluted with 0.03 ml of water and subjected to lactic acid determination using the kit supplied by Sigma. The latter contains, in addition to lactic dehydrogenase and NAD+, hydrazine, and glycine buffer, pH 9.2. The mixture was incubated for 30 min at 25° C. after which the absorbance due to formation of NADH was determined at 340 nm using a Gilford Model 260 spectrophotometer. To assess the elevation of the glycolytic activity of the VX2 tumor over that of liver tissue, parallel studies were always carried out in an identical manner with 1 g liver slices derived from the host liver. Finally, in those cases where agents were tested for their capacity to inhibit glycolysis, these were introduced into the system at the prior incubation step with all subsequent steps being run in parallel with those described above for the VX2 tumor or liver alone.
The screen included the following 9 compounds: 2-deoxyglucose (2DOG), 2-fluoro-2-deoxyglucose, 6-fluoro-6-deoxyglucose, 3-O-methyl glucose, 5-thio-D-glucose-6-phosphate, L-glucose, D-xylose, D-lyxose, and 3-bromopyruvic acid (3BrPA). The screen was conducted by incubating VX2 tumor slices in a medium containing 6 mM glucose with 6 mM of each of these agents at 37° C. for 5 h. The use of 6 mM glucose in the medium was used to mimic the maximal amount of glucose that might be in the blood in a real in vivo situation.
To compare the inhibitory effects of 2DOG and 3BrPA on the glycolytic capacity of the isolated liver implanted VX2 tumor, various concentrations of 2DOG and 3BrPA were prior incubated for 30 min at 37° C. with 1 g VX2 tumor slices and glycolysis was monitored.

AS-30D hepatoma cells = assay: Killing of AS-30D hepatoma cells (trypan blue); type: cell-based, rat; settings: 20 mM, 12 h
Procedure: AS-30D hepatoma cells grown in the peritoneal cavity of Sprague Dawley female rats (see Materials) were adapted to grow in tissue culture in Dulbecco's modified Eagle's medium containing 10% fetal bovine serum. Cells were maintained at 37° C. in a humidified atmosphere containing 5% CO2, and counted in a Neubauer chamber after trypan blue dye addition (cell/dye volume=1/1) by visualization under a Nikon inverted microscope.
The studies described above using the VX2 tumor model for liver cancer predict that 2DOG and 3BrPA may have the capacity to kill hepatoma cells expressing the high glycolytic/high hexokinase phenotype. […] Cell killing was assessed in these experiments by counting those cells in which trypan blue had entered.

Structure (SMILES) | inhibition of VX2 tumor glycolysis (screen) (VX2 tumor glycolysis; VX2 tumor slices) | further results
O=C[C@H](F)[C@@H](O)[C@H](O)[C@H](O)CO [2-fluoro-2-deoxyglucose] | ineffective | 
O=C[C@@H](O)[C@H](O)[C@@H](O)[C@@H](O)CO [L-glucose] | ineffective | 
O=C[C@H](O)[C@@H](O)[C@H](O)CO [D-xylose] | ineffective | 
O=C[C@@H](O)[C@@H](O)[C@H](O)CO [D-lyxose] | ineffective | 
CO[C@@H]([C@H](O)[C@H](O)CO)[C@@H](O)C=O [3-O-methyl glucose] | ineffective | 
O=C[C@H](O)[C@@H](O)[C@H](O)[C@H](S)COP(=O)(O)O [5-thio-D-glucose-6-phosphate] | ineffective | 
O=C[C@H](O)[C@@H](O)[C@H](O)[C@H](O)CF [6-fluoro-6-deoxyglucose] | ineffective | 
O=CC[C@@H](O)[C@H](O)[C@H](O)CO [2DOG, 2-deoxyglucose] | ineffective | IC50 (VX2 tumor glycolysis; Oryctolagus cuniculus, 0.5 h, prior incubated 30 min at 37° C. with 1 g VX2 tumor slices, read-out: half maximal inhibition of glycolysis): ~15 mM; concentration for maximal / complete inhibition of glycolysis (VX2 tumor glycolysis; VX2 tumor slices, 2DOG maximal (70%), 3BrPA complete): ~50 mM; maximal inhibition of glycolysis (VX2 tumor glycolysis; at almost 50 mM, VX2 tumor slices): 70%; cell killing (AS-30D hepatoma cells): about 80%
